Laboratory results reported in ChEMBL document CHEMBL1201862, “PubChem BioAssay data set” (2004).
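Compound exposure: 48 hours, 5 concentrations, 96-well plates. GI50 marks 50% less growth.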 Active and inactive are the calls of the source. Rule as the data show it: active = GI50 up to about 1.1 µM and inactive = higher.

What was measured:
Experiment in all cases: inhibition of tumour cell growth, NCI panel, 48 h
A498 = tested on: A498
A549 = tested on: A549
HCT-116 = tested on: HCT-116
HOP-62 = tested on: HOP-62
Hs-578T = tested on: Hs-578T
IGROV-1 = tested on: IGROV-1
KM12 = tested on: KM12
MDA-MB-231 = tested on: MDA-MB-231
MDA-MB-435 = tested on: MDA-MB-435
OVCAR-8 = tested on: OVCAR-8
PC-3 = tested on: PC-3
RXF 393 = tested on: RXF 393
SF-268 = tested on: SF-268
SNB-75 = tested on: SNB-75
T47D = tested on: T47D
UACC-62 = tested on: UACC-62
UO-31 = tested on: UO-31
SF-295 = tested on: SF-295
SK-MEL-5 = tested on: SK-MEL-5
SF-539 = tested on: SF-539

SMILES | GI50 (A498) | GI50 (A549) | GI50 (HCT-116) | GI50 (HOP-62) | GI50 (Hs-578T) | GI50 (IGROV-1) | GI50 (KM12) | GI50 (MDA-MB-231) | GI50 (MDA-MB-435) | GI50 (OVCAR-8) | GI50 (PC-3) | GI50 (RXF 393) | GI50 (SF-268) | GI50 (SNB-75) | GI50 (T47D) | GI50 (UACC-62) | GI50 (UO-31) | GI50 (SF-295) | GI50 (SK-MEL-5) | GI50 (SF-539)
CC#CC#C/C=C1/O[C@]2(CCC(OC(=O)CC(C)C)CO2)[C@@H]2O[C@H]12 (stereo partly drawn) | > 100 µM (inactive) | 39.6 µM (inactive) | 15.4 µM (inactive) | 42.7 µM (inactive) | 52.5 µM (inactive) | 91.4 µM (inactive) | 27 µM (inactive) | 24 µM (inactive) | 21.1 µM (inactive) | 32.4 µM (inactive) | 23.5 µM (inactive) | 21.7 µM (inactive) | 24.4 µM (inactive) | 78.5 µM (inactive) | 20.5 µM (inactive) | 23.3 µM (inactive) | 18.9 µM (inactive) | – | – | –
C=CCNc1ccc(C)cc1 | 3.82 µM (inactive) | > 100 µM (inactive) | > 100 µM (inactive) | – | > 100 µM (inactive) | – | > 100 µM (inactive) | > 100 µM (inactive) | > 100 µM (inactive) | > 100 µM (inactive) | > 100 µM (inactive) | > 100 µM (inactive) | > 100 µM (inactive) | > 100 µM (inactive) | > 100 µM (inactive) | – | 35 µM (inactive) | > 100 µM (inactive) | > 100 µM (inactive) | –
CO/C1=C\C(C)=C\C(C)C(O)C(C)C/C(C)=C/C=C/C(OC)C(C(C)C(O)C(C)C2(O)CC(O)C(C)C(C(C)C)O2)OC1=O (stereo not drawn) | – | 0.00101 µM (active) | 0.000382 µM (active) | 5.1e-05 µM (active) | 0.011 µM (active) | 0.00223 µM (active) | 0.000351 µM (active) | 0.000382 µM (active) | 0.00198 µM (active) | 0.00164 µM (active) | 0.00252 µM (active) | 0.00526 µM (active) | 0.00519 µM (active) | 0.00857 µM (active) | 0.00297 µM (active) | 0.0028 µM (active) | 0.00278 µM (active) | 0.00163 µM (active) | 0.000396 µM (active) | 0.00193 µM (active)
Cc1ccc(C2=Nc3c(N)nc(N)nc3NC(c3ccccc3)C2)cc1 (stereo not drawn) | – | 10.2 µM (inactive) | 4.11 µM (inactive) | 9.55 µM (inactive) | 14 µM (inactive) | 5.36 µM (inactive) | – | 11.8 µM (inactive) | 1.92 µM (inactive) | 13.1 µM (inactive) | 10.4 µM (inactive) | 7.36 µM (inactive) | 14.3 µM (inactive) | 11.2 µM (inactive) | 13.1 µM (inactive) | 8.15 µM (inactive) | 11.5 µM (inactive) | – | – | 12 µM (inactive)
CCOC(=O)C1(C(=O)OCC)COS(=O)OC1 | > 100 µM (inactive) | > 100 µM (inactive) | 17.4 µM (inactive) | – | 83.6 µM (inactive) | – | 28.7 µM (inactive) | 16.9 µM (inactive) | 36.7 µM (inactive) | 45.1 µM (inactive) | > 100 µM (inactive) | 18.3 µM (inactive) | > 10 µM (inactive) | 79.1 µM (inactive) | 19.9 µM (inactive) | – | 70.3 µM (inactive) | > 100 µM (inactive) | 35.6 µM (inactive) | –
CC(C)c1cc2c(c(O)c1O)[C@@]1(C(=O)O)CCCC(C)(C)[C@@H]1CC2 [CARNOSIC ACID] | – | 18.2 µM (inactive) | 28.7 µM (inactive) | 27.2 µM (inactive) | 24.1 µM (inactive) | 19.4 µM (inactive) | 14 µM (inactive) | 31.8 µM (inactive) | 16.3 µM (inactive) | 15.3 µM (inactive) | 15.3 µM (inactive) | 19.6 µM (inactive) | 18.8 µM (inactive) | 17.8 µM (inactive) | 18.4 µM (inactive) | 13.9 µM (inactive) | 14.4 µM (inactive) | 22.4 µM (inactive) | 16.2 µM (inactive) | 18.7 µM (inactive)
